Where two headings read alike, the source gives them in different places.
Experiments:
LNCaP = test: cells; conditions: Homo sapiens
WM-164 = test: SRB cell growth inhibition (cytotoxicity) assay; type: cell-based, human; conditions: Homo sapiens
B16-F1 = test: SRB cell growth inhibition (cytotoxicity) assay; type: cell-based, mouse
Excerpt: (§1) The only compounds which belong to the invention are the ones falling under the scope of formula (XI).

PC-3 = test: cells; conditions: Homo sapiens
Excerpt: as §1
Cells were stained with SRB solution.
Cells. […] Cells between the third and fifth passages were used for experiments.
Cell growth inhibition studies. […] Cells were stained with sulphorhodamine B (SRB) solution.

PPC-1 = test: cells; conditions: Homo sapiens
DU 145 = test: cells; conditions: Homo sapiens
A375 = test: SRB cell growth inhibition (cytotoxicity) assay; type: cell-based, human
[1] = read-out: IC50 ±SEM (nM), LNCaP
[2] = Mus musculus, B16-F1; Table 6; read-out: IC50 ±SEM (nM), B16-F1
[3] = PC-3, read-out: IC50 ±SEM (nM), PC-3
[4] = PPC-1, read-out: IC50 ±SEM (nM), PPC-1
[5] = DU-145, read-out: IC50 ±SEM (nM), DU 145
[6] = Homo sapiens, A-375; Table 6; read-out: IC50 ±SEM (nM), A375
[7] = 96 h, read-out: IC50 ± SEM (nM), LNCaP
[8] = WM164, SRB assay, 96 h, Table 2, read-out: IC50 ± SEM (nM), WM-164
[9] = Mus musculus, B16-F1; read-out: IC50 ± SEM (nM), B16-F1
[10] = PC-3, 96 h, read-out: IC50 ± SEM (nM), PC-3
[11] = PPC-1, 96 h, read-out: IC50 ± SEM (nM), PPC-1
[12] = DU-145, 96 h, read-out: IC50 ± SEM (nM), DU 145
[13] = Homo sapiens, A-375, 96 h; read-out: IC50 ± SEM (nM), A375
[14] = WM164, 96 h, read-out: IC50 ± SEM (nM), WM-164
[15] = Mus musculus, B16-F1, read-out: IC50 ± SEM (nM), B16-F1
[16] = Homo sapiens, A-375, 96 h, read-out: IC50 ± SEM (nM), A375

Structure (SMILES) | IC50 (LNCaP; [7]) | IC50 (B16-F1; [9]) | IC50 (PC-3; [10]) | IC50 (PPC-1; [11]) | IC50 (DU 145; [12]) | IC50 (A375; [13]) | IC50 (B16-F1; [15]) | IC50 (A375; [16]) | further results
COc1cc(C(=O)c2cc(-c3ccccc3)n[nH]2)cc(OC)c1OC [1k, (3-Phenyl-1H-pyrazol-5-yl)(3,4,5-trimethoxyphenyl)methanone] |  |  |  |  |  |  |  |  | IC50 (LNCaP; [1]): 101 nM; IC50 (WM-164; WM164, Table 6, read-out: IC50 ±SEM (nM), WM164): 220 nM; IC50 (B16-F1; [2]): 245 nM; IC50 (PC-3; [3]): 101 nM; IC50 (PPC-1; [4]): 84 nM; IC50 (DU 145; [5]): 140 nM; IC50 (A375; [6]): 100 nM
COc1cc(C(=C(C)C)c2csc(-c3ccccc3)n2)cc(OC)c1OC [2a, 4-(2-Methyl-1-(3,4,5-trimethoxyphenyl)prop-1-enyl)-2-phenylthiazole] | 1390 nM | 3800 ± 1300 nM | 2470 nM | 2040 nM | 2650 nM | 1900 ± 800 nM |  |  | IC50 (WM-164; [8]): 3700 ± 1200 nM
COc1cc(C(O)c2csc(-c3ccccc3)n2)cc(OC)c1OC (centres unmarked) [2b, (2-Phenylthiazol-4-yl)(3,4,5-trimethoxyphenyl)methanol] | > 10000 nM | > 30000 nM | > 10000 nM | > 10000 nM | > 10000 nM | > 30000 nM |  |  | 
COc1cc(/C(=C\C#N)c2csc(-c3ccccc3)n2)cc(OC)c1OC [2c-cis, (E)-3-(2-phenylthiazol-4-yl)-3-(3,4,5-trimethoxyphenyl)acrylonitrile] | 1990 nM |  | ~10000 nM | ~10000 nM | ~10000 nM |  | 1200 ± 300 nM | 1200 ± 400 nM | IC50 (WM-164; [14]): 1000 ± 200 nM
COc1cc(/C(=C/C#N)c2csc(-c3ccccc3)n2)cc(OC)c1OC [2c-trans, (Z)-3-(2-phenylthiazol-4-yl)-3-(3,4,5-trimethoxyphenyl)acrylonitrile] | 580 nM |  | 890 nM | 900 nM | 2280 nM |  | 5400 ± 2100 nM | 4600 ± 1500 nM | IC50 (WM-164; [14]): 4900 ± 1300 nM
COc1cc(/C(=N/N)c2csc(-c3ccccc3)n2)cc(OC)c1OC [2d-cis, (Z)-4-(hydrazono(3,4,5-trimethoxyphenyl)methyl)-2-phenylthiazole] | 1800 nM | 2000 ± 800 nM | 1120 nM | 872 nM | 1210 nM | 900 ± 300 nM |  |  | 
COc1cc(/C(=N\N)c2csc(-c3ccccc3)n2)cc(OC)c1OC [2d-trans, (E)-4-(hydrazono(3,4,5-trimethoxyphenyl)methyl)-2-phenylthiazole] | 1300 nM | 1800 ± 700 nM | 1040 nM | 966 nM | 1210 nM | 600 ± 200 nM |  |  | 
CO/N=C(/c1cc(OC)c(OC)c(OC)c1)c1csc(-c2ccccc2)n1 [2f-cis, (Z)-(2-Phenylthiazol-4-yl)(3,4,5-trimethoxyphenyl)methanone O-methyl oxime] | > 10000 nM | 3800 ± 1600 nM | > 10000 nM | > 10000 nM | > 10000 nM | 2900 ± 1200 nM |  |  | IC50 (WM-164; [8]): 3400 ± 1800 nM
CO/N=C(\c1cc(OC)c(OC)c(OC)c1)c1csc(-c2ccccc2)n1 [2f-trans, (E)-(2-Phenylthiazol-4-yl)(3,4,5-trimethoxyphenyl)methanone O-methyl oxime] | > 10000 nM | > 10000 nM | > 10000 nM | > 10000 nM | > 10000 nM | > 10000 nM |  |  | IC50 (WM-164; [8]): > 10000 nM
COc1cc(C(=O)Nc2csc(-c3ccccc3)n2)cc(OC)c1OC [2h, 3,4,5-Trimethoxy-N-(2-phenylthiazol-4-yl)benzamide] | > 10000 nM | > 30000 nM | > 10000 nM | > 10000 nM | > 10000 nM | > 30000 nM |  |  | 
COc1cc(-c2csc(-c3ccccc3)n2)cc(OC)c1OC [2i, 2-Phenyl-4-(3,4,5-trimethoxyphenyl)thiazole] | > 10000 nM | > 10000 nM | > 10000 nM | > 10000 nM | > 10000 nM | > 10000 nM |  |  | IC50 (WM-164; [8]): > 10000 nM
COc1cc(C(=O)c2csc(-c3ccc(CC#N)cc3)n2)cc(OC)c1OC [2n, 2-(4-(4-(3,4,5-Trimethoxybenzoyl)thiazol-2-yl)phenyl)acetonitrile] |  |  |  |  |  |  |  |  | IC50 (LNCaP; [1]): 101 nM; IC50 (B16-F1; [2]): 290 nM; IC50 (PC-3; [3]): 131 nM; IC50 (PPC-1; [4]): 99 nM; IC50 (DU 145; [5]): 143 nM; IC50 (A375; [6]): 210 nM
COc1cc(/C=C\c2csc(-c3ccccc3)n2)cc(OC)c1OC [3a, (Z)-2-Phenyl-4-(3,4,5-trimethoxystyryl)thiazole] | > 10000 nM |  | > 10000 nM | > 10000 nM | > 10000 nM |  | 11000 ± 2800 nM | 46500 ± 23300 nM | 
COc1cc(/C=C/c2csc(-c3ccccc3)n2)cc(OC)c1OC [3b, (E)-2-Phenyl-4-(3,4,5-trimethoxystyryl)thiazole] | > 10000 nM |  | > 10000 nM | > 10000 nM | > 10000 nM |  | 32800 ± 13000 nM | > 10000 nM | IC50 (WM-164; [14]): 30800 ± 12000 nM
O=C(c1cc(O)c(O)c(O)c1)c1c[nH]c(-c2ccc(O)c(O)c2)n1 [13ha, (2-(3,4-dihydroxyphenyl)-1H-imidazol-4-yl)(3,4,5-trihydroxyphenyl)methanone] |  |  |  |  |  |  |  |  | IC50 (WM-164; WM164 melanoma cells, 48 h, SRB, read-out: IC50 ± SEM (nM) WM164): > 10000 nM; IC50 (B16-F1; Mus musculus; B16-F1 melanoma cells, 48 h, SRB; read-out: IC50 ± SEM (nM) B16-F1): > 10000 nM; IC50 (A375; Homo sapiens, A-375; A375 melanoma cells, 48 h, SRB; read-out: IC50 ± SEM (nM) A375): > 10000 nM
COc1cc(C(=O)c2coc(-c3ccccc3)n2)cc(OC)c1OC [36a, (2-Phenyl-oxazol-4-yl)-(3,4,5-trimethoxy-phenyl)-methanone] | 310 nM | 600 ± 200 nM | 294 nM | 324 nM | 292 nM | 300 ± 100 nM |  |  | 
COc1cc(C(=O)[C@@H]2CSC(c3ccc(O[Si](C)(C)C(C)(C)C)cc3)=N2)cc(OC)c1OC [58a, (R)-(2-(4-(tert-Butyldimethylsilyloxy)phenyl)-4,5-dihydrothiazol-4-yl)(3,4,5-trimethoxyphenyl)methanone] | 549 nM |  | 183 ± 24 nM | 246 ± 8 nM | 434 ± 30 nM |  | 500 ± 200 nM | 700 ± 300 nM | 
COc1cc(C(=O)c2csc(-c3cc4ccccc4[nH]3)n2)cc(OC)c1OC [62a, (2-(1H-indol-2-yl)thiazol-4-yl)(3,4,5-trimethoxyphenyl)methanone] | 28 nM |  | 24 nM | 28 nM | 32 nM |  | 43 ± 21 nM | 19 ± 9 nM | 
COc1cc(C(=O)c2csc(-c3ccc(CNC(=O)OC(C)(C)C)cc3)n2)cc(OC)c1OC [68a, tert-Butyl 4-(4-(3,4,5-trimethoxybenzoyl)thiazol-2-yl)benzylcarbamate] | 2600 nM | 2900 ± 400 nM | 3100 nM | 2700 nM | 4400 nM | 7900 ± 500 nM |  |  | 
CC(C)C[C@H](NC(=O)[C@H](Cc1ccccc1)NC(=O)c1cnccn1)B(O)O [Bortezomib, reference compound] |  |  |  |  |  |  |  |  | IC50 (WM-164; WM164, read-out: IC50 ± SEM (nM) (n=3), WM-164, Table 14A): 8 ± 1 nM; IC50 (B16-F1; Mus musculus, B16-F1, read-out: IC50 ± SEM (nM) (n=3), B16-F1; Table 14A): 24 ± 2 nM; IC50 (A375; Homo sapiens, A-375, read-out: IC50 ± SEM (nM) (n=3), A375; Table 14A): 8 ± 1 nM

Reference: patent EP2608671B1, “COMPOUNDS FOR TREATMENT OF CANCER” (Gtx, Inc., priority 2010, dated 2012)
